# Experimental data reported in PubChem BioAssay (NCI).
#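 Exposure lasted 48 hours, with cells grown in 96-well plates and compounds tested at five concentrations. The concentration for full growth arrest is given as TGI.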
# Tests used:
# Experiment in all cases: inhibition of tumour cell growth, NCI panel, 48 h
# [1] = test system: 786-0 renal
# [2] = test system: A549 NSCLC
# [3] = test system: ACHN renal
# [4] = test system: CCRF-CEM leukemia
# [5] = test system: COLO 205 colon
# [6] = test system: EKVX NSCLC
# [7] = test system: HCC-2998 colon
# [8] = test system: HCT-116 colon
# [9] = test system: HCT-15 colon
# [10] = test system: HL-60(TB) leukemia
# [11] = test system: HOP-62 NSCLC
# [12] = test system: HS 578T breast
# [13] = test system: IGROV1 ovarian
# [14] = test system: K-562 leukemia
# [15] = test system: KM12 colon
# [16] = test system: M14 melanoma
# [17] = test system: MCF7 breast
# [18] = test system: MDA-MB-231 breast
# [19] = test system: MDA-MB-435
# [20] = test system: MDA-N
# [21] = test system: MOLT-4 leukemia
# [22] = test system: NCI-H460 lung
# [23] = test system: NCI-H522 lung
# [24] = test system: NCI/ADR-RES ovarian
# [25] = test system: OVCAR-4 ovarian
# [26] = test system: OVCAR-5 ovarian
# [27] = test system: OVCAR-8 ovarian
# [28] = test system: PC-3 prostate
# [29] = test system: RPMI-8226 leukemia
# [30] = test system: SF-268 CNS
# [31] = test system: SF-295 CNS
# [32] = test system: SF-539 CNS
# [33] = test system: SK-MEL-28 melanoma
# [34] = test system: SK-MEL-5 melanoma
# [35] = test system: SK-OV-3 ovarian
# [36] = test system: SN12C renal
# [37] = test system: SNB-19 CNS
# [38] = test system: SNB-75 CNS
# [39] = test system: SR leukemia
# [40] = test system: SW-620 colon
# [41] = test system: T-47D breast
# [42] = test system: TK-10 renal
# [43] = test system: U251 CNS
# [44] = test system: UACC-257 melanoma
# [45] = test system: UO-31 renal
# [46] = test system: A498 renal
# [47] = test system: BT-549 breast
# [48] = test system: CAKI-1 renal
# [49] = test system: DU-145 prostate
# [50] = test system: HOP-92 NSCLC
# [51] = test system: LOX IMVI melanoma
# [52] = test system: MALME-3M melanoma
# [53] = test system: NCI-H226 lung
# [54] = test system: NCI-H23 lung
# [55] = test system: UACC-62 melanoma
# [56] = test system: HT29 colon
# [57] = test system: OVCAR-3 ovarian
# [58] = test system: RXF 393 renal
# [59] = test system: SK-MEL-2 melanoma
smiles,measurement,setting,value
CC1SC(=O)SC1C (stereo not drawn),TGI,[1],> 100 µM
same,TGI,[2],> 100 µM
same,TGI,[3],> 100 µM
same,TGI,[4],> 100 µM
same,TGI,[5],> 100 µM
same,TGI,[6],> 100 µM
same,TGI,[7],> 100 µM
same,TGI,[8],> 100 µM
same,TGI,[9],> 100 µM
same,TGI,[10],> 100 µM
same,TGI,[11],> 100 µM
same,TGI,[12],> 100 µM
same,TGI,[13],> 100 µM
same,TGI,[14],> 100 µM
same,TGI,[15],> 100 µM
same,TGI,[16],> 100 µM
same,TGI,[17],> 100 µM
same,TGI,[18],> 100 µM
same,TGI,[19],> 100 µM
same,TGI,[20],> 100 µM
same,TGI,[21],> 100 µM
same,TGI,[22],> 100 µM
same,TGI,[23],> 100 µM
same,TGI,[24],> 100 µM
same,TGI,[25],> 100 µM
same,TGI,[26],> 100 µM
same,TGI,[27],> 100 µM
same,TGI,[28],> 100 µM
same,TGI,[29],> 100 µM
same,TGI,[30],> 100 µM
same,TGI,[31],> 100 µM
same,TGI,[32],> 100 µM
same,TGI,[33],> 100 µM
same,TGI,[34],> 100 µM
same,TGI,[35],> 100 µM
same,TGI,[36],> 100 µM
same,TGI,[37],> 100 µM
same,TGI,[38],> 100 µM
same,TGI,[39],> 100 µM
same,TGI,[40],> 100 µM
same,TGI,[41],> 100 µM
same,TGI,[42],> 100 µM
same,TGI,[43],> 100 µM
same,TGI,[44],> 100 µM
same,TGI,[45],> 100 µM
COc1ccc(/C(C)=N/NC(=O)c2ccncc2)cc1OC,TGI,[1],> 10 µM
same,TGI,[46],> 10 µM
same,TGI,[2],> 10 µM
same,TGI,[47],> 10 µM
same,TGI,[48],> 10 µM
same,TGI,[4],> 10 µM
same,TGI,[5],> 10 µM
same,TGI,[49],> 10 µM
same,TGI,[7],> 10 µM
same,TGI,[9],> 10 µM
same,TGI,[10],> 10 µM
same,TGI,[11],> 10 µM
same,TGI,[50],> 10 µM
same,TGI,[12],> 10 µM
same,TGI,[13],> 10 µM
same,TGI,[14],> 10 µM
same,TGI,[15],> 10 µM
same,TGI,[51],> 10 µM
same,TGI,[16],> 10 µM
same,TGI,[52],> 10 µM
same,TGI,[17],> 10 µM
same,TGI,[18],> 10 µM
same,TGI,[20],> 10 µM
same,TGI,[21],> 10 µM
same,TGI,[53],> 10 µM
same,TGI,[54],> 10 µM
same,TGI,[22],> 10 µM
same,TGI,[24],> 10 µM
same,TGI,[25],> 10 µM
same,TGI,[29],> 10 µM
same,TGI,[30],> 10 µM
same,TGI,[32],> 10 µM
same,TGI,[34],> 10 µM
same,TGI,[35],> 10 µM
same,TGI,[36],> 10 µM
same,TGI,[38],> 10 µM
same,TGI,[39],> 10 µM
same,TGI,[40],> 10 µM
same,TGI,[41],> 10 µM
same,TGI,[43],> 10 µM
same,TGI,[44],> 10 µM
same,TGI,[55],> 10 µM
same,TGI,[45],> 10 µM
COC(=O)CC1(O)C(/C=C/c2ccccc2)C(C(=O)OC)C(=O)C(C(=O)OC)C1C(=O)OC (stereo not drawn),TGI,[1],> 100 µM
same,TGI,[46],> 100 µM
same,TGI,[2],> 100 µM
same,TGI,[3],> 100 µM
same,TGI,[48],> 100 µM
same,TGI,[4],> 100 µM
same,TGI,[5],> 100 µM
same,TGI,[49],> 100 µM
same,TGI,[6],> 100 µM
same,TGI,[7],> 100 µM
same,TGI,[8],> 100 µM
same,TGI,[9],> 100 µM
same,TGI,[10],> 100 µM
same,TGI,[11],> 100 µM
same,TGI,[50],> 100 µM
same,TGI,[12],> 100 µM
same,TGI,[56],> 100 µM
same,TGI,[13],> 100 µM
same,TGI,[14],> 100 µM
same,TGI,[15],> 100 µM
same,TGI,[51],> 100 µM
same,TGI,[16],> 100 µM
same,TGI,[52],> 100 µM
same,TGI,[17],> 100 µM
same,TGI,[18],> 100 µM
same,TGI,[19],> 100 µM
same,TGI,[20],> 100 µM
same,TGI,[21],> 100 µM
same,TGI,[53],> 100 µM
same,TGI,[54],> 100 µM
same,TGI,[22],> 100 µM
same,TGI,[23],> 100 µM
same,TGI,[24],> 100 µM
same,TGI,[57],> 100 µM
same,TGI,[25],> 100 µM
same,TGI,[26],> 100 µM
same,TGI,[27],> 100 µM
same,TGI,[28],> 100 µM
same,TGI,[29],> 100 µM
same,TGI,[58],> 100 µM
same,TGI,[30],> 100 µM
same,TGI,[31],> 100 µM
same,TGI,[32],> 100 µM
same,TGI,[59],> 100 µM
same,TGI,[33],> 100 µM
same,TGI,[34],> 100 µM
same,TGI,[35],> 100 µM
same,TGI,[36],> 100 µM
same,TGI,[37],> 100 µM
same,TGI,[39],> 100 µM
same,TGI,[40],> 100 µM
same,TGI,[42],> 100 µM
same,TGI,[43],> 100 µM
same,TGI,[44],> 100 µM
same,TGI,[55],> 100 µM
same,TGI,[45],> 100 µM
O=C(NCP(=O)(O)O)c1cccnc1,TGI,[1],> 100 µM
same,TGI,[46],> 100 µM
same,TGI,[2],> 100 µM
same,TGI,[3],> 100 µM
same,TGI,[47],> 100 µM
same,TGI,[48],> 100 µM
same,TGI,[4],> 100 µM
same,TGI,[5],> 100 µM
same,TGI,[49],> 100 µM
same,TGI,[6],> 100 µM
same,TGI,[8],> 100 µM
same,TGI,[9],> 100 µM
same,TGI,[10],> 100 µM
same,TGI,[11],> 100 µM
same,TGI,[50],> 100 µM
same,TGI,[56],> 100 µM
same,TGI,[13],> 100 µM
same,TGI,[14],> 100 µM
same,TGI,[15],> 100 µM
same,TGI,[51],> 100 µM
same,TGI,[16],> 100 µM
same,TGI,[17],> 100 µM
same,TGI,[18],> 100 µM
same,TGI,[19],> 100 µM
same,TGI,[20],> 100 µM
same,TGI,[21],> 100 µM
same,TGI,[53],> 100 µM
same,TGI,[54],> 100 µM
same,TGI,[22],> 100 µM
same,TGI,[24],> 100 µM
same,TGI,[57],> 100 µM
same,TGI,[25],> 100 µM
same,TGI,[26],> 100 µM
same,TGI,[27],> 100 µM
same,TGI,[28],> 100 µM
same,TGI,[29],> 100 µM
same,TGI,[58],> 100 µM
same,TGI,[31],> 100 µM
same,TGI,[32],> 100 µM
same,TGI,[59],> 100 µM
same,TGI,[33],> 100 µM
same,TGI,[34],> 100 µM
same,TGI,[35],> 100 µM
same,TGI,[36],> 100 µM
same,TGI,[37],> 100 µM
same,TGI,[38],> 100 µM
same,TGI,[39],> 100 µM
same,TGI,[40],> 100 µM
same,TGI,[41],> 100 µM
same,TGI,[42],> 100 µM
same,TGI,[43],> 100 µM
same,TGI,[44],> 100 µM
same,TGI,[55],> 100 µM
same,TGI,[45],> 100 µM
